Test results taken from patent US10757935B2, “Composition comprising a pesticide and an alkoxylated ester” (BASF SE, priority 2015, dated 2020).

Legend:
[1] = test system: powdery mildew (Blumeria graminis f. sp. hordei); test: Curative greenhouse trial with Epoxiconazole on barley; format: in vivo; conditions: barley leaf segments (F and F-1) on benzimidazole agar, inoculation 2 days prior to application, Epoxiconazole 5 g/ha, adjuvant 50 ml/ha, assessment 14 DAT
Procedure: (§1) The influence of the adjuvants was tested separately in a curative and protective greenhouse trial on barley. In each case, barley was cultivated in a substrate “Frustorder Erde” for three weeks with three plants per pot. Each treatment was replicated 14 times. The adjuvant dose rate in each treatment was 50 ml/ha. The assessment of the infection rate was conducted by a trained biologist.
(§2) The adjuvants used in the trials are di-isononanyl-adipate cyclohexanedicarboxylic acid-isononanol-diester, 1,2-cyclohexanediol-di-isononate, di-isononanyl-3EO-adipate, cyclohexanedicarboxylic acid-isononanol-3EO-diester and 1,2-cyclohexanediol-6EO-di-isononate.
An Epoxiconazole SC 250 was used. Inoculation of the leaves with powdery mildew (Blumeria graminis f. sp. hordei) was done 2 days prior to application of the Epoxiconazole formulation. From the stem, 15 leaf segments were cut off with a length of 10 cm using each the flag leaf (F) and the 2nd leaf (F-1). Altogether, the leaves of each were placed on benzimidazole agar i.e. 0.5% Agar with 40 ppm benzimidazole. The concentration of Epoxiconazole for the leaf application was 5 g/ha. Assessment was done 14 days after treatment (14 DAT) of the efficacy against powdery mildew by counting the mildew pustules per leaf on a length of 7 cm.

[2] = test system: powdery mildew (Blumeria graminis f. sp. hordei); test: Protective greenhouse trial with Azoxystrobin on barley; format: in vivo; conditions: barley leaf segments (F and F-1) on agar cut 4 h after application, then inoculated, Azoxystrobin 5 g/ha, adjuvant 50 ml/ha, incubation time 10 d
Procedure: as §1, §2
4 h after application with the equivalent of 5 g/ha Azoxystrobin, leaf segments were cut off at a length of 7 cm from the stem. 15 leaves of each the F and the F-1 leaf were placed on agar. After the inoculation with powdery mildew (Blumeria graminis f. sp. hordei), the incubation time was 10 d. The assessment of the infection rate was conducted by a trained biologist.

SMILES	Powdery mildew infestation (%) [1] [%]	Powdery mildew infestation (%) [2] [%]
Fc1ccc([C@]2(Cn3cncn3)O[C@H]2c2ccccc2Cl)cc1 (racemic) [Epoxiconazole]	33	–
CO/C=C(/C(=O)OC)c1ccccc1Oc1cc(Oc2ccccc2C#N)ncn1 [Azoxystrobin]	–	36
